Experimental data from US5922681A, “Endothelin antagonists” (Warner-Lambert Company, priority 1992, dated 1999).
Values joined by “and” are separate entries in the source; they are usually repeats but may differ in a detail not shown here. Identical values can stand only once. Each block holds one compound with its values, some of them ahead of it.

Tests used:
[1] = molecular target: T1, ETA (rabbit renal artery vascular smooth muscle cells) (Oryctolagus cuniculus, UniProt A5A8K3); assay: Endothelin receptor binding assay-A (ERBA-A), intact cell binding of [125I]-ET-1; details: for IC50: rabbit renal artery vascular smooth muscle cells, [125I]-ET-1 25 pM
T1 construct: The cells used were rabbit renal artery vascular smooth muscle cells; endogenous in cells; host or cells: rabbit renal artery vascular smooth muscle cells
T1 sequence (A5A8K3 21-427): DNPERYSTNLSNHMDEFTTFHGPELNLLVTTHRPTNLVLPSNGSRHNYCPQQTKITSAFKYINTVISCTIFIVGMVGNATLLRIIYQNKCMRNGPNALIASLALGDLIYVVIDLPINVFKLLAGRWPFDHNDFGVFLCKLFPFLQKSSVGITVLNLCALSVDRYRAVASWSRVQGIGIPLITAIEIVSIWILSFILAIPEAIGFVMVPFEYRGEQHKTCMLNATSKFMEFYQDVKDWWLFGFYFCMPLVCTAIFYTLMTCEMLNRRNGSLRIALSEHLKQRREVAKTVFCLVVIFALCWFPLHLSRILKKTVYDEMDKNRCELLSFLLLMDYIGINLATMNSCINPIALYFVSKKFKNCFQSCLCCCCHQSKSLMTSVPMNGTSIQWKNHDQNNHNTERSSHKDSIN
Description: (§1) The compounds of Formula I are valuable antagonists of endothelin. […] Compounds of Formula I were tested for their ability to inhibit [^125 I]-ET-1([^125 I]-Endothelin-1) binding in a receptor assay according to the following procedures Doherty, A. M., et al, J. Cardiovascul. Pharmacol. 17(Suppl 7):S59-61 (1991) and Doherty, A. M., et al, Bio. Org. Med. Chem. Lett. in press (1992):
ENDOTHELIN RECEPTOR BINDING ASSAY-A (ERBA-A) INTACT CELL BINDING OF [^125 I]-ET-1
The cells used were rabbit renal artery vascular smooth muscle cells grown in a 48-well dish (1 cm^2) (confluent cells).
The growth media was Dulbeccos Modified Eagles/Ham's F12 which contained 10% fetal bovine serum and antibiotics (penicillin/streptomycin/fungizone).
The assay buffer was a medium 199 containing Hanks salts and 25 mM Hepes buffer (Gibco 380-2350AJ), supplemented with penicillin/streptomycin/fungizone (0.5%) and bovine serum albumin (1 mg/mL).
Amersham radioiodinated endothelin-1 [^125 I]-ET-1 was used at final concentration of 20,000 cpm/0.25 mL (25 pM).
Second, remove the assay buffers, place the dish on ice, and add 150 μL of cold assay buffer described above to each well. Third, add 50 μL each of cold [^125 I]-ET-1 and competing ligand to the solution (at the same time if possible). Next, place dish in a 37° C. water bath for about 2 hours and gently agitate the dish every 15 minutes. Discard the radioactive incubation mixture in the sink and wash wells three times with […] of cold phosphate buffered saline. Last, add […] of 0.25 molar sodium hydroxide, agitate for 1 hour on a rotator, and then transfer the sodium hydroxide extract to gamma counting tubes and count the radioactivity.

[2] = molecular target: T2, ETB (rat cerebellar membranes) (Rattus norvegicus, UniProt P21451); assay: Endothelin receptor binding assay-B (ERBA-B), [125I]-ET-1 binding in rat cerebellar membranes; details: for Selectivity ETA / ETB from Table I: ERBA-A versus ERBA-B; for IC50: rat cerebellar membranes, [125I]-ET-1 25 pM
T2 construct: thaw one aliquot of frozen rat cerebellar membranes; from tissue; host or cells: rat cerebellar membranes
T2 sequence (P21451 27-442): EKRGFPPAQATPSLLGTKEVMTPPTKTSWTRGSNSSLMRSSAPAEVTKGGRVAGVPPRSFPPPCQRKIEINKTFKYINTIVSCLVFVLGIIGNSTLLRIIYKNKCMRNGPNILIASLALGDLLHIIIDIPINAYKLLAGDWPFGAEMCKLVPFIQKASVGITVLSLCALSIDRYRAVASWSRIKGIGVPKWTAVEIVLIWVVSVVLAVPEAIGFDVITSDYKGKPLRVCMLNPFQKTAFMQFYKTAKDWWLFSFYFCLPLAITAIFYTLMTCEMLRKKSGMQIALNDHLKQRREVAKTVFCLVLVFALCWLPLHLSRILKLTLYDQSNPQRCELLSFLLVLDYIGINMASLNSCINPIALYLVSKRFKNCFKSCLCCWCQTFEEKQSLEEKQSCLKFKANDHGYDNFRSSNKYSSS
Description: as §1
ENDOTHELIN RECEPTOR BINDING ASSAY-B (ERBA-B) [^125 I]-ET-1 BINDING IN RAT CEREBELLAR MEMBRANES
The tissue is made up of 20 mM tris(hydroxy-methyl)aminomethane hydrochloride (Trizma) buffer, 2 mM ethylenediaminetetra acetate, 100 μM phenylmethylsulfonyl fluoride.
First, thaw one aliquot of frozen rat cerebellar membranes (2 mg protein in 0.5 mL). Next, add 0.5 mL membrane aliquot to 4.5 mL cold tissue buffer, polytron at 7,500 revolutions per minute for 10 seconds. Finally, dilute tissue suspension 1/100 (0.1 mL suspension+9.9 mL tissue buffer), polytron again, and place ice.
Medium 199 with Hank's salts plus 25 mM Hepes+1 mg/mL bovine serum albumin.
Amersham [^125 I]-ET-1 (aliquots of 2×10^6 cpm per […] aliquot of [^125 I]-ET-1 with 5.2 mL dilution buffer, place on ice until use (final concentration will be 20,000 cpm per tube, or 25 pM).
Add 50 μL each of cold [^125 ]-ET-1 and competing ligand to tubes on ice. Mix in 150 μL of tissue to each tube, vortex briefly, then tap to force all liquids to bottom (total assay volume=250 μL). Then place the tubes in a 37° C. water bath for 2 hours.
Add 2.5 mL cold wash buffer (50 mM Trizma buffer) to each tube, filter, and then wash tube with additional 2.5 mL wash buffer and add to filter. Finally, wash filters with an additional 2.5 mL of cold wash buffer.
Count filters for radioactivity in gamma counter.

[3] = molecular target: endothelin receptor (Human Placenta); assay: [125I]-ET-1 receptor binding, Human Placenta
Description: as §1, with “Org.” for “Org. Med. Chem. Lett. in press (1992):”

[4] = molecular target: endothelin receptor (Rat Heart); assay: [125I]-ET-1 receptor binding, Rat Heart
Description: as §1, with “Org.” for “Org. Med. Chem. Lett. in press (1992):”

inhibition at 10 µM [1]: -0.2% | inhibition at 10 µM [2]: 72.3% | Selectivity ETA / ETB from Table I [2]: selective for ETB | IC50 [2]: 4000 nM
SMILES: CC(Cc1c[nH]c2ccccc12)(NC(=O)OC1C2CC3CC(C2)CC1C3)C(=O)N(CCc1ccccc1)CC(=O)O (racemic) [Compound 13, (±)-N-[3-(1H-indol-3-yl)-2-methyl-1-oxo-2-[[(tricyclo[3.3.1.1^3,7]dec-2-yloxy)carbonyl]amino]-propyl]-N-(2-phenylethyl)glycine]

IC50 [1]: 46000 nM | IC50 [2]: 1500 nM | IC50 [3]: 0.72 µM | IC50 [4]: 9.25 µM
SMILES: C[C@H]1CCCC[C@@H]1OC(=O)N[C@](C)(Cc1c[nH]c2ccccc12)C(=O)N[C@H](CC(=O)O)Cc1ccccc1 (relative stereo) [Compound 1, (1S-trans)-N-[α-methyl-N-[[(2-methyl-cyclohexyl)-oxy]carbonyl]-D-tryptophyl]-L-3-(phenylmethyl)-β-alanine]

IC50 [3]: 9.88 µM | IC50 [4]: 9.06 µM
SMILES: CC(Cc1c[nH]c2ccccc12)(NC(=O)OC1C2CC3CC(C2)CC1C3)C(=O)NC(CSCC(=O)O)Cc1ccccc1 (stereo not drawn) [Compound 2, [R-(R*,S*)]-[[2-[[3-(1H-indol-3-yl)-2-methyl-1-oxo-2-[[(tricyclo[3.3.1.1^3,7]dec-2-yloxy)carbonyl]-amino]propyl]amino]-3-phenylpropyl]thio]acetic acid]

IC50 [3]: 0.96 µM | IC50 [4]: 7.91 µM
SMILES: CC(Cc1c[nH]c2ccccc12)(NC(=O)OC1C2CC3CC(C2)CC1C3)C(=O)NC(CC(=O)O)Cc1ccccc1 (stereo not drawn) [Compound 3, [R-(R*,S*)]-β-[[3-(1H-indol-3-yl)-2-methyl-1-oxo-2-[[(tricyclo[3.3.1.1^3,7]dec-2-yloxy)carbonyl]-amino]propyl]amino]benzenebutanoic acid]

IC50 [3]: 3.84 µM | IC50 [4]: 34.5 µM
SMILES: C[C@](Cc1c[nH]c2ccccc12)(NC(=O)OC1C2CC3CC(C2)CC1C3)C(=O)NC(CC(=O)O)Cc1ccccc1 (stereo partly drawn) [Compound 5, N-[α-methyl-N-[(tricyclo[3.3.1.1^3,7]dec-2-yloxy)carbonyl]-D-tryptophyl]-D-3-(phenylmethyl)-β-alanine]

IC50 [2]: 870 nM
SMILES: CC(Cc1c[nH]c2ccccc12)(NC(=O)OC1C2CC3CC(C2)CC1C3)C(=O)NC(C=CC(=O)O)Cc1ccccc1 (stereo not drawn) [Compound 6, [R-[R*,S*-(E)]]-4-[[3-(1H-indol-3-yl)-2-methyl-1-oxo-2-[[(tricyclo[3.3.1.1^3,7]dec-2-yloxy)carbonyl]-amino]propyl]amino]-5-phenyl-2-pentenoic acid]

IC50 [2]: 870 nM
SMILES: CC(Cc1c[nH]c2ccccc12)(NC(=O)OC1C2CC3CC(C2)CC1C3)C(=O)NC(CCC(=O)O)Cc1ccccc1 (stereo not drawn) [Compound 7, [R-(R*,S*)]-γ-[[3-(1H-indol-3-yl)-2-methyl-1-oxo-2-[[(tricyclo[3.3.1.1^3,7]dec-2-yloxy)carbonyl]-amino]propyl]amino]benzenepentanoic acid]

inhibition at 10 µM [1]: 25% | IC50 [2]: 910 nM and 1800 nM
SMILES: C[C@](Cc1c[nH]c2ccccc12)(NC(=O)OC1C2CC3CC(C2)CC1C3)C(=O)N(CCC(=O)O)CCc1ccccc1 (stereo partly drawn) [Compound 8, (R)-3-[[3-(1H-indol-3-yl) -2-methyl-1-oxo-2-[[(tricyclo[3.3.1.1^3,7]dec-2-yloxy)carbonyl]amino]-propyl](2-phenylethyl)amino]propanoic acid]

ERBA-A % inhibition at 10 μM [1]: 33.5% | ERBA-B % inhibition at 10 μM [2]: 9.4%
SMILES: C[C@](Cc1c[nH]c2ccccc12)(NC(=O)OC1C2CC3CC(C2)CC1C3)C(=O)NC(CC(=O)O)Cc1ccc(N)cc1 (stereo partly drawn) [Compound 9, L-3-[(4-aminophenyl)methyl]-N-[α-methyl-N-[(tricyclo[3.3.1.1^3,7]dec-2-yloxy)carbonyl]-D-tryptophyl]-β-alanine]

inhibition at 10 µM [1]: 45% | inhibition at 10 µM [2]: 39.7%
SMILES: Cc1[nH]c2ccccc2c1C[C@@H](NC(=O)OC1C2CC3CC(C2)CC1C3)C(=O)N[C@@H](Cc1ccccc1)C(=O)NCC(=O)O (stereo partly drawn) [Compound 10, N-[2-methyl-N-[(tricyclo[3.3.1.1^3,7]dec-2-yloxy)carbonyl]-D-tryptophyl]-L-phenylalanyl-glycine]

ERBA-A % inhibition at 10 μM [1]: 47.7% | ERBA-B % inhibition at 10 μM [2]: 51.4%
SMILES: CC(Cc1c[nH]c2ccccc12)(NC(=O)OC1C2CC3CC(C2)CC1C3)C(=O)NC(CC(=O)O)Cc1ccc([N+](=O)[O-])cc1 (stereo not drawn) [Compound 11, [R-(R*,S*)]-β-[[3-(1H-indol-3-yl)-2-methyl-1-oxo-2-[[(tricyclo[3.3.1.1^3,7]dec-2-yloxy)carbonyl]-amino]propyl]amino]-4-nitrobenzenebutanoicacid]

inhibition at 10 µM [1]: 4.1% | inhibition at 10 µM [2]: 86% | Selectivity ETA / ETB from Table I [2]: selective for ETB | IC50 [2]: 1800 nM
SMILES: C[C@](Cc1c[nH]c2ccccc12)(NC(=O)OC1C2CC3CC(C2)CC1C3)C(=O)N(CCc1ccccc1)CC(=O)O (stereo partly drawn) [Compound 12, N-[α-methyl-N-[(tricyclo[3.3.1.1^3,7]dec-2-yloxy)carbonyl]-D-tryptophyl]-N-(2-phenylethyl)-glycine]

ERBA-A % inhibition at 10 μM [1]: 54.3% | ERBA-B % inhibition at 10 μM [2]: 39.8%
SMILES: CC(Cc1c[nH]c2ccccc12)(NC(=O)OC1C2CC3CC(C2)CC1C3)C(=O)NC(C=CC=CC(=O)O)Cc1ccccc1 (stereo not drawn) [Compound 14, [R-[R*,S*-(E,E)]]-6-[[3-(1H-indol-3-yl)-2-methyl-1-oxo-2-[[(tricyclo[3.3.1.1^3,7]dec-2-yloxy)-carbonyl]amino]propyl]amino]-7-phenyl-2,4-heptadienoic acid]

ERBA-A % inhibition at 10 μM [1]: 51.6% | ERBA-B % inhibition at 10 μM [2]: 36.5%
SMILES: CC(Cc1c[nH]c2ccccc12)(NC(=O)OC1C2CC3CC(C2)CC1C3)C(=O)NC(CCCCC(=O)O)Cc1ccccc1 (stereo not drawn) [Compound 15, [R-(R*,S*)]-ε-[[3-(1H-indol-3-yl)-2-methyl-1-oxo-2-[[(tricyclo[3.3.1.1^3,7]dec-2-yloxy)carbonyl]-amino]propyl]amino]benzeneheptanoic acid]

IC50 [1]: 1500 nM | IC50 [2]: > 10000 nM
SMILES: C[C@](Cc1c[nH]c2ccccc12)(NC(=O)NC1CCCCC1)C(=O)O [Compound 16, N-[(cyclohexylamino)carbonyl]-α-methyl-D-tryptophan]
